Measurements taken from PubChem BioAssay AID248 (DTP/NCI, 2004).
Several values for one entry are separate records, joined by “and”; a condition that tells them apart may be missing. Equal values may be shown once. Inconclusive results and toxic doses are left out.

Test system: L1210 leukemia ip in BDF1 mice, survival T/C
Assay: NCI In Vivo Anticancer Drug Screen. Data for tumor model L1210 Leukemia (intraperitoneal) in B6D2F1 (BDF1) mice
Conditions: endpoint: mean survival time, higher = longer survival
In short: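 Ratio derived from survival: compound-dosed mice over vehicle-dosed mice, all bearing a transplantable tumor.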

[1] = dose: 50.0 mg/kg/injection, schedule: Q01DX001 (ip), vehicle: carboxymethylcellulose (CMC)
[2] = dose: 100.0 mg/kg/injection, schedule: Q01DX001 (ip), vehicle: carboxymethylcellulose (CMC)
[3] = dose: 150.0 mg/kg/injection, schedule: Q01DX001 (ip), vehicle: saline
[4] = dose: 100.0 mg/kg/injection, schedule: Q04DX003 (ip), vehicle: saline with Tween-80
[5] = dose: 200.0 mg/kg/injection, schedule: Q04DX003 (ip), vehicle: saline with Tween-80
[6] = dose: 400.0 mg/kg/injection, schedule: Q04DX003 (ip), vehicle: saline with Tween-80
[7] = dose: 100.0 mg/kg/injection, schedule: Q01DX009 (ip), vehicle: Klucel (hydroxypropylcellulose) (HPC)
[8] = dose: 100.0 mg/kg/injection, schedule: Q04DX003 (ip), vehicle: Klucel (hydroxypropylcellulose) (HPC)
[9] = dose: 200.0 mg/kg/injection, schedule: Q01DX009 (ip), vehicle: Klucel (hydroxypropylcellulose) (HPC)
[10] = dose: 200.0 mg/kg/injection, schedule: Q04DX003 (ip), vehicle: Klucel (hydroxypropylcellulose) (HPC)
[11] = dose: 400.0 mg/kg/injection, schedule: Q01DX009 (ip), vehicle: Klucel (hydroxypropylcellulose) (HPC)
[12] = dose: 400.0 mg/kg/injection, schedule: Q04DX003 (ip), vehicle: Klucel (hydroxypropylcellulose) (HPC)

Compound: CC(=O)Nc1ccc(S(=O)(=O)NN)cc1
- T/C [1]: 106 % of control
- T/C [2]: 103 % of control
- T/C (dose: 200.0 mg/kg/injection, schedule: Q01DX001 (ip), vehicle: carboxymethylcellulose (CMC)): 92 % of control
- T/C (dose: 400.0 mg/kg/injection, schedule: Q01DX001 (ip), vehicle: carboxymethylcellulose (CMC)): 92 % of control

Compound: CC1CN1C1=C(Br)C(=O)C(N2CC2C)=C(Br)C1=O (centres undefined)
- T/C (dose: 1.56 mg/kg/injection, schedule: Q01DX009 (ip), vehicle: Klucel (hydroxypropylcellulose) (HPC)): 95 % of control
- T/C (dose: 1.56 mg/kg/injection, schedule: Q04DX003 (ip), vehicle: saline with Tween-80): 98 % of control
- T/C (dose: 3.12 mg/kg/injection, schedule: Q01DX009 (ip), vehicle: Klucel (hydroxypropylcellulose) (HPC)): 98 % of control
- T/C (dose: 3.12 mg/kg/injection, schedule: Q04DX003 (ip), vehicle: saline with Tween-80): 104 % of control
- T/C (dose: 6.25 mg/kg/injection, schedule: Q01DX009 (ip), vehicle: Klucel (hydroxypropylcellulose) (HPC)): 95 % of control
- T/C (dose: 6.25 mg/kg/injection, schedule: Q04DX003 (ip), vehicle: saline with Tween-80): 98 % of control
- T/C (dose: 12.5 mg/kg/injection, schedule: Q01DX009 (ip), vehicle: Klucel (hydroxypropylcellulose) (HPC)): 90 % of control
- T/C (dose: 12.5 mg/kg/injection, schedule: Q04DX003 (ip), vehicle: saline with Tween-80): 95 % of control
- T/C (dose: 25.0 mg/kg/injection, schedule: Q04DX003 (ip), vehicle: saline with Tween-80): 98 % of control

Compound: Nn1cnc2c(=S)nc[nH]c21
- T/C (dose: 42.0 mg/kg/injection, schedule: Q01DX015 (ip), vehicle: other): 101 % of control
- T/C (dose: 72.0 mg/kg/injection, schedule: Q01DX015 (ip), vehicle: other): 101 % of control
- T/C (dose: 100.0 mg/kg/injection, schedule: Q01DX001 (ip), vehicle: other): 102 % of control
- T/C (dose: 177.0 mg/kg/injection, schedule: Q01DX001 (ip), vehicle: other): 97 % of control
- T/C (dose: 177.0 mg/kg/injection, schedule: Q01DX001 (ip), vehicle: saline): 102 % of control
- T/C (dose: 200.0 mg/kg/injection, schedule: Q01DX001 (ip), vehicle: other): 102 % of control
- T/C (dose: 200.0 mg/kg/injection, schedule: Q01DX015 (ip), vehicle: other): 86 % of control
- T/C (dose: 266.0 mg/kg/injection, schedule: Q01DX001 (ip), vehicle: other): 115 % of control
- T/C (dose: 266.0 mg/kg/injection, schedule: Q01DX001 (ip), vehicle: saline): 101 % of control
- T/C (dose: 400.0 mg/kg/injection, schedule: Q01DX001 (ip), vehicle: other): 154 % of control and 164 % of control
- T/C (dose: 400.0 mg/kg/injection, schedule: Q01DX001 (ip), vehicle: saline): 104 % of control
- T/C (dose: 600.0 mg/kg/injection, schedule: Q01DX001 (ip), vehicle: saline): 167 % of control

Compound: C[N+]1(C2CC3CCC2C3=O)CCOCC1 (centres undefined)
- T/C (dose: 75.0 mg/kg/injection, schedule: Q01DX001 (ip), vehicle: saline): 97 % of control
- T/C [3]: 98 % of control

Compound: CN1C(=O)C/C(=C/[N+](=O)[O-])c2ccccc21
- T/C [1]: 101 % of control
- T/C [2]: 97 % of control

Compound: O/N=C(/CN1CCCCC1)c1ccccc1
- T/C [4]: 95 % of control
- T/C [5]: 98 % of control
- T/C [6]: 104 % of control

Compound: O=[N+]([O-])c1cc2c3ccccc3ccc2c2ccccc12
- T/C [7]: 96 % of control
- T/C [8]: 95 % of control
- T/C [9]: 94 % of control
- T/C [10]: 97 % of control
- T/C [11]: 100 % of control
- T/C [12]: 94 % of control

Compound: N#CCCn1c(=O)n(CCC#N)c(=O)n(CCC#N)c1=O
- T/C (dose: 100.0 mg/kg/injection, schedule: Q04DX002 (ip), vehicle: Klucel (hydroxypropylcellulose) (HPC)): 104 % of control
- T/C (dose: 200.0 mg/kg/injection, schedule: Q04DX002 (ip), vehicle: Klucel (hydroxypropylcellulose) (HPC)): 97 % of control
- T/C (dose: 400.0 mg/kg/injection, schedule: Q04DX002 (ip), vehicle: Klucel (hydroxypropylcellulose) (HPC)): 93 % of control

Compound: O=C(O)c1ccccc1C(c1ccccc1)c1ccccc1
- T/C [4]: 98 % of control
- T/C [5]: 93 % of control
- T/C [6]: 98 % of control

Compound: CCOc1ccc([N+](=O)[O-])cc1CN(CC)CC
- T/C (dose: 5.0 mg/kg/injection, schedule: Q01DX009 (ip), vehicle: saline): 97 % of control
- T/C (dose: 9.5 mg/kg/injection, schedule: Q01DX001 (ip), vehicle: saline): 109 % of control
- T/C (dose: 10.0 mg/kg/injection, schedule: Q01DX009 (ip), vehicle: saline): 95 % of control
- T/C (dose: 10.0 mg/kg/injection, schedule: Q04DX003 (ip), vehicle: saline): 97 % of control
- T/C (dose: 19.0 mg/kg/injection, schedule: Q01DX001 (ip), vehicle: saline): 106 % of control
- T/C (dose: 20.0 mg/kg/injection, schedule: Q01DX009 (ip), vehicle: saline): 89 % of control
- T/C (dose: 20.0 mg/kg/injection, schedule: Q04DX003 (ip), vehicle: saline): 102 % of control
- T/C (dose: 38.0 mg/kg/injection, schedule: Q01DX001 (ip), vehicle: saline): 98 % of control

Compound: O=C(O)c1ccccc1C(=O)OO
- T/C (dose: 50.0 mg/kg/injection, schedule: Q01DX009 (ip), vehicle: saline with Tween-80): 97 % of control
- T/C (dose: 100.0 mg/kg/injection, schedule: Q01DX009 (ip), vehicle: saline with Tween-80): 97 % of control
- T/C (dose: 200.0 mg/kg/injection, schedule: Q01DX009 (ip), vehicle: saline with Tween-80): 97 % of control

Compound: O=C(Nc1ccc(F)cc1)Nc1cccc(C(=O)O)c1
- T/C [7]: 96 % of control
- T/C [8]: 96 % of control
- T/C [9]: 107 % of control
- T/C [10]: 100 % of control
- T/C [11]: 95 % of control
- T/C [12]: 105 % of control

Compound: CCCCCCCCOP(=O)(N1CC1)N1CC1
- T/C (dose: 1.0 mg/kg/injection, schedule: Q01DX015 (ip), vehicle: saline): 94 % of control
- T/C (dose: 2.0 mg/kg/injection, schedule: Q01DX015 (ip), vehicle: saline): 95 % of control
- T/C (dose: 4.0 mg/kg/injection, schedule: Q01DX015 (ip), vehicle: saline): 97 % of control
- T/C (dose: 8.0 mg/kg/injection, schedule: Q01DX001 (ip), vehicle: saline): 119 % of control
- T/C (dose: 8.2 mg/kg/injection, schedule: Q01DX015 (ip), vehicle: saline): 163 % of control
- T/C (dose: 10.5 mg/kg/injection, schedule: Q01DX015 (ip), vehicle: saline): 165 % of control and 166 % of control
- T/C (dose: 12.4 mg/kg/injection, schedule: Q01DX015 (ip), vehicle: saline): 204 % of control
- T/C (dose: 16.0 mg/kg/injection, schedule: Q01DX015 (ip), vehicle: saline): 209 % of control
- T/C (dose: 18.0 mg/kg/injection, schedule: Q01DX015 (ip), vehicle: saline): 235 % of control
- T/C (dose: 18.6 mg/kg/injection, schedule: Q01DX015 (ip), vehicle: saline): 214 % of control
- T/C (dose: 28.0 mg/kg/injection, schedule: Q01DX001 (ip), vehicle: saline): 153 % of control
- T/C (dose: 33.5 mg/kg/injection, schedule: Q01DX015 (ip), vehicle: saline): 207 % of control
- T/C (dose: 44.4 mg/kg/injection, schedule: Q01DX001 (ip), vehicle: saline): 150 % of control
- T/C (dose: 50.0 mg/kg/injection, schedule: Q01DX015 (ip), vehicle: saline): 92 % of control
- T/C (dose: 66.7 mg/kg/injection, schedule: Q01DX001 (ip), vehicle: saline): 157 % of control and 170 % of control
- T/C [3]: 213 % of control

Compound: CC(C)=CC#N
- T/C [4]: 90 % of control
- T/C [5]: 103 % of control
- T/C [6]: 101 % of control

Compound: CCC(CO)Nc1nc2cc(Br)ccc2c2ccc(Br)cc12 (centres undefined)
- T/C [8]: 90 % of control
- T/C [10]: 87 % of control
- T/C [12]: 94 % of control

Compound: Nc1nc(N)c2cc(NCc3ccccc3Cl)ccc2n1
- T/C (dose: 3.12 mg/kg/injection, schedule: Q01DX009 (ip), vehicle: saline with Tween-80): 111 % of control
- T/C (dose: 6.25 mg/kg/injection, schedule: Q01DX009 (ip), vehicle: saline with Tween-80): 103 % of control
- T/C (dose: 6.25 mg/kg/injection, schedule: Q04DX003 (ip), vehicle: saline): 94 % of control
- T/C (dose: 12.5 mg/kg/injection, schedule: Q01DX009 (ip), vehicle: saline with Tween-80): 95 % of control
- T/C (dose: 12.5 mg/kg/injection, schedule: Q04DX003 (ip), vehicle: saline): 102 % of control
- T/C (dose: 25.0 mg/kg/injection, schedule: Q01DX001 (ip), vehicle: acetone): 100 % of control
